# Molecular target: T1, HSP90α (Homo sapiens, UniProt P07900)
# T1 construct: purchased Stressgen Lot B506492
# Assay: HSP90 binding assay (fluorescent ELISA, competition with biotinylated Geldanamycin)
# Settings: reported as range of IC50's
# Experimental: The biochemical assay is described as follows.
# Purified HSP90α […] was purchased from Stressgen Lot B506492. Single use aliquots of the 1.15 mg/ml stock were prepared and stored at −80° C. to avoid multiple freeze-thaw cycles.
# A Nunc Maxisorb plate was coated overnight at 4° C. with 200 ng of HSP90/well dissolved in DPBS. The following day the plates were washed with TBST and blocked for 2 h at room temperature with blocking buffer (20 mM HEPES pH 7.3, 1 mM EDTA, 5 mM MgCl2, 100 mM KCl, 5% BSA). Blocking buffer was removed by washing plates with TBST, and test compounds dissolved in assay buffer (20 mM HEPES pH 7.3, 1 mM EDTA, 5 mM MgCl2, 100 mM KCl, 1% BSA) were added to plate. […] The reaction is incubated for 60 minutes at room temperature. […] Competitive inhibitory compounds will block this interaction from occurring.
# The reactions were stopped by washing the plate with TBST. The binding of the bio-GM is detected by the addition of an Alkaline Phosphatase tagged Streptavidin molecule. A TBST wash eliminates any unbound detection agent, and the Alkaline Phosphate substrate Attophos is introduced. This substrate generates a fluorescent signal at […] when excited at […]. These plates can be monitored on either a Victor 5 or Perkin Elmer Envision multilabel reader.
row,Molecule,IC50
1,"4-[1-(3-Methoxy-propyl)-1H-tetrazol-5-yl]-6-naphthalen-2-yl-benzene-1,3-diol [Compound 78]",10 to 50 µM
2,"5-[1-(3,3-Dimethyl-butyl)-1H-tetrazol-5-yl]-5′-isopropyl-2′-methoxy-biphenyl-2,4-diol [Compound 96]",1 to 10 µM
3,"5′-(1-Butyl-1H-tetrazol-5-yl-2′,4′-dihydroxy-biphenyl-3-carboxylic acid (3-dimethylamino-propyl)-methyl-amide [Compound 52]",> 50 µM
4,"COCCCn1nnnc1-c1cc(-c2cccc(C)c2)c(O)cc1O [Compound 8, 5-[1-(3-Methoxy-propyl)-1H-tetrazol-5-yl]-3′-methyl-biphenyl-2,4-diol]",10 to 50 µM
5,COCCn1nnnc1-c1cc(-c2cc(C(C)C)ccc2OC)c(O)cc1O [Compound 9],1 to 10 µM
6,"COCCn1nnnc1-c1cc(-c2cc(C(F)(F)F)ccc2F)c(O)cc1O [Compound 10, 2′-Fluoro-5-[1-(2-methoxy-ethyl)-1H-tetrazol-5-yl]-5′-trifluoromethyl-biphenyl-2,4-diol]",> 50 µM
7,COCCn1nnnc1-c1cc(-c2cccc(OC(F)(F)F)c2)c(O)cc1O [Compound 11],> 50 µM
8,COCCn1nnnc1-c1cc(-c2cccc(C(F)(F)F)c2)c(O)cc1O [Compound 12],> 50 µM
9,"COCCCn1nnnc1-c1cc(-c2ccccc2C(F)(F)F)c(O)cc1O [Compound 13, 5-[1-(3-Methoxy-propyl)-1H-tetrazol-5-yl]-2′-trifluoromethyl-biphenyl-2,4-diol]",> 50 µM
10,COCCCn1nnnc1-c1cc(-c2cccc(OC(F)(F)F)c2)c(O)cc1O [Compound 17],1 to 10 µM
11,"COCCCn1nnnc1-c1cc(-c2ccc(C(F)(F)F)cc2)c(O)cc1O [Compound 18, 5-[1-(3-methoxy-propyl)-1H-tetrazol-5-yl]-4′-trifluoromethyl-biphenyl-2,4-diol]",> 50 µM
12,COCCCn1nnnc1-c1cc(-c2cccc(C(=O)OC)c2)c(O)cc1O [Compound 21],10 to 50 µM
13,CCCCn1nnnc1-c1cc(-c2cccc(C(=O)OC)c2)c(O)cc1O [Compound 22],10 to 50 µM
14,COCCCn1nnnc1-c1cc(Br)c(O)cc1O [Compound 25],> 50 µM
15,"COc1ccc(C(=O)N2CCC(n3nnnc3-c3cc(-c4cc(C(C)C)ccc4OC)c(O)cc3O)CC2)cc1 [Compound 37, {4-[5-(4,6-dihydroxy-5′-isopropyl-2′-methoxy-biphenyl-3-yl)-tetrazol-1-yl]-piperidin-1-yl}-(4-methoxy-phenyl)-methanone]",1 to 10 µM
16,CCN1CCC(n2nnnc2-c2cc(-c3cc(C(C)C)ccc3OC)c(O)cc2O)CC1 [Compound 38],1 to 10 µM
17,CCNC(=O)N1CCC(n2nnnc2-c2cc(-c3cc(C(C)C)ccc3OC)c(O)cc2O)CC1 [Compound 39],1 to 10 µM
18,"COc1ccc(C(C)C)cc1-c1cc(-c2nnnn2C2CCN(C(=O)CC(C)C)CC2)c(O)cc1O [Compound 40, 1-{4-[5-(4,6-Dihydroxy-5′-isopropyl-2′-methoxy-biphenyl-3-yl)-tetrazol-1yl]-piperidin-1-yl}-3-methyl-butan-1-one]",10 to 50 µM
19,COc1ccc(C(C)C)cc1-c1cc(-c2nnnn2C2CCNCC2)c(O)cc1O [Compound 41],1 to 10 µM
20,"COc1ccc(C(C)C)cc1-c1cc(-c2nnnn2C2CCN(C(=O)OC(C)(C)C)C2)c(O)cc1O (centres unmarked) [Compound 42, 3-[5-(4,6-Dihydroxy-5′-isopropyl-2′-methoxy-biphenyl-3-yl)-tetrazol-1-yl]-pyrrolidine-1-carboxylic Acid Tert-Butyl Ester]",10 to 50 µM
21,COc1ccc(C(C)C)cc1-c1cc(-c2nnnn2C2CCN(C(=O)OC(C)(C)C)CC2)c(O)cc1O [Compound 43],10 to 50 µM
22,CCCCn1nnnc1-c1cc(-c2cccc(C(=O)O)c2)c(O)cc1O [Compound 46],> 50 µM
23,COCCCn1nnnc1-c1cc(-c2cccc(C(=O)O)c2)c(O)cc1O [Compound 47],> 50 µM
